Legend:
[1] = tested on: Human bronchial epithelial cells (HBECs) from COPD donors; assay: IL-13 induced goblet hyperplasia in COPD donor HBEC air-liquid interface culture, qPCR; type: cell-based; settings: 0.3 ng/ml IL-13, ALI day 14, vs DMSO
Description: Air-liquid interface (ALI) differentiation of primary human bronchial epithelial cells (HBECs) is an accepted in vitro model of IL-13-induced goblet cell hyperplasia. HBECs were initially thawed into T75 flasks in PneumaCult maintenance media, allowed to expand, then seeded into apical chamber of transwells. After reaching confluency, medium was removed from the apical and basal chambers, and replaced only in the basal chamber with complete PneumaCult-ALI Medium to start air-liquid interface (ALI) differentiation. Cells were differentiated under ALI conditions for 14 days, in presence or absence of IL-13. Medium in the basal chamber containing IL-13 and test compounds was replenished 3 times a week, and excess mucus was washed from the apical chamber with PBS twice a week starting on day 7. At day 14, differentiation to goblet, ciliated, and club cells is assessed by histology (IHC) or qPCR, using goblet marker (Muc5ac), ciliated cell markers (Foxj1, Acetyl α-tubulin) and club cell marker (Scgb1a1) (FIG. 5).
Human bronchial epithelial cells (HBECs) from two COPD donors were differentiated in the presence of 0.3 ng/ml IL-13 and test compounds. At day 14, cultures were processed for qPCR, and evaluated for lung epithelial markers: goblet (Muc5ac), ciliated (Foxj1), club (Scgb1a1). 2^-ΔCt values were transformed to log form and normalized to DMSO. […]

[2] = tested on: mouse intestinal organoids; assay: Mouse small intestinal organoid differentiation, lineage markers by Q-PCR; type: cell-based; settings: mouse intestinal organoids in ENR media, after 5 days of treatments, FIG. 1
Description: Cryopreserved mouse intestinal organoids derived from small intestine were obtained from Stem Cell Technologies. The organoids were thawed and propagated in Intesticult Growth Medium (Mouse) (purchased from Stem Cell Technologies) following the company's instructions. Briefly, approximately 100 organoid fragments/well are embedded in 6 Matrigel domes in 6-well plates and growth media is renewed every 2-3 days. The organoids are passaged every 5-6 days in 1:4 ratio. To assess the potential of the predicted perturbations to induce or reduce the goblet cell lineage during organoid differentiation, an in vitro assay was established to induce the various intestinal lineages (enterocytes, goblet cells, Paneth cells, Enteroendocrine cells) based on published data (Yin et al, Nat. Meth. 2013). Briefly, organoid fragments are embedded in Matrigel and grown in custom-made media in the presence of EGF, Noggin, Rspondin (ENR) supplemented with the indicated factors (Table 4) that are known to induce markers of the various intestinal lineages. The expression of markers and the induction of the various cell lineages was assessed by Q-PCRs after 5 days of treatments (FIG. 1). Further characterization of the organoids will be performed by immunofluorescence staining and flow cytometry. For immunofluorescence commercially available antibodies against Muc2, ChrA, and ALPI will be used.

[3] = tested on: mouse intestinal organoids; settings: factors known to induce markers of the intestinal lineages (Yin et al.), ENR media; cited from earlier work

Structure (SMILES) | goblet cells / goblet hyperplasia (Muc5ac qPCR) ([1]; FIG. 6A) | differentiation to ciliated (Foxj1) and club (Scgb1a1) cells (qPCR) ([1]; FIG. 6B-6C) | expression of muc2 gene, a marker of Goblet cells (Q-PCR) [2] | Cell lineage induced by factor [3]
CC[C@H]1OC(=O)[C@H](C)[C@@H](O[C@H]2C[C@@](C)(OC)[C@@H](O)[C@H](C)O2)[C@H](C)[C@@H](O[C@@H]2O[C@H](C)C[C@H](N(C)C)[C@H]2O)[C@](C)(O)C[C@@H](C)CN(C)[C@H](C)[C@@H](O)[C@]1(C)O [C] | inhibited goblet cells | promoting or maintaining differentiation to ciliated and club cells |  | 
C[C@H](NC(=O)Cc1cc(F)cc(F)c1)C(=O)N[C@H](C(=O)OC(C)(C)C)c1ccccc1 [DAPT] |  |  | induces the expression of muc2 gene | Enteroendocrine Cells, Paneth
Cc1ccc2nc(NC(=O)CSc3nc4c(c(=O)n3-c3ccccc3)SCC4)sc2c1 [IWP2] |  |  |  | Enterocytes, Enteroendocrine Cells

— patent publication US20240361301A1, “METHODS AND COMPOSITIONS FOR MODULATING GOBLET CELLS AND FOR MUCO-OBSTRUCTIVE DISEASES” (Flagship Pioneering Innovations VI, LLC, priority 2021, published 2024)
